Species: Rattus norvegicus
Assay: Open TG-GATES - Regimen: Single
Assay type: toxicity, organism-based, Sprague-Dawley
Design: regimen Single, gender Male, age 6 weeks
Conditions: in vivo, iv, route intravenous injection; for KIDNEY_L / KIDNEY_R / KIDNEY_TOTAL: tissue Kidney; for LIVER: tissue Liver
[1] = 0 mg/kg, 24 h, dose level Control
[2] = 0 mg/kg, 24 h, tissue Blood, dose level Control
[3] = 0 mg/kg, 24 h, tissue Plasma, dose level Control
[4] = 1 mg/kg, 3 h, dose level Middle
[5] = 1 mg/kg, 3 h, tissue Blood, dose level Middle
[6] = 1 mg/kg, 3 h, tissue Plasma, dose level Middle
[7] = 1 mg/kg, 6 h, dose level Middle
[8] = 1 mg/kg, 6 h, tissue Blood, dose level Middle
[9] = 1 mg/kg, 6 h, tissue Plasma, dose level Middle

With CISPLATIN the TERMINAL_BW [1] was 232.1 g, the APTT [2] was 22.3 s and the Bas [2] was 0%. It also gave an Eos [2] of 1%, a Fbg [2] of 282.6 mg/dL and a Ht [2] of 40.2%. It also gave a Lym [2] of 81.2%, an MCH [2] of 21.1 pg and an MCV [2] of 65 fL. It also gave a Mono [2] of 2.8%, a Plat [2] of 123 x10_4/uL and an RBC [2] of 617.6 x10_4/ul. It also gave a Ret [2] of 6.3%, a WBC [2] of 84 x10_2/uL and a KIDNEY_L [1] of 1 g. The KIDNEY_R [1] was 1.1 g, the KIDNEY_TOTAL [1] was 2.1 g and the ALP [3] was 1431.4 IU/L. It also gave an ALT [3] of 47.4 IU/L, an AST [3] of 74.8 IU/L and a BUN [3] of 17.2 mg/dL. The CRE [3] was 0.2 mg/dL, the DBIL [3] was 0 mg/dL and the IP [3] was 7.7 mg/dL. For the same sequence, the K [3] was 4.4 meq/L, the LDH [3] was 177.8 IU/L and the PL [3] was 150.4 mg/dL. The RALB [3] was 3 g/dL, the TBIL [3] was 0.014 mg/dL and the TC [3] was 80.2 mg/dL. For the same sequence, the TG [3] was 98.4 mg/dL, the TP [3] was 5.6 g/dL and the gamma-GTP [3] was 1.6 IU/L. It also gave a TERMINAL_BW [4] of 215.5 g, an APTT [5] of 22.6 s and a Bas [5] of 0%. For the same sequence, the Eos [5] was 1%, the Fbg [5] was 275.8 mg/dL and the Hb [5] was 12.7 g/dL. The Ht [5] was 38.9%, the Lym [5] was 75% and the MCH [5] was 21.1 pg. The MCHC [5] was 32.7%, the MCV [5] was 64.5 fL and the Mono [5] was 2.6%. It also gave a Plat [5] of 127.7 x10_4/uL, an RBC [5] of 602.2 x10_4/ul and a Ret [5] of 6.6%. It also gave a WBC [5] of 89.5 x10_2/uL, a KIDNEY_L [4] of 1 g and a KIDNEY_R [4] of 1 g. The KIDNEY_TOTAL [4] was 2 g, the LIVER [4] was 10 g and the ALP [6] was 1623.4 IU/L. For the same sequence, the ALT [6] was 38.8 IU/L, the BUN [6] was 13 mg/dL and the CRE [6] was 0.2 mg/dL. For the same sequence, the DBIL [6] was 0 mg/dL, the GLC [6] was 175.4 mg/dL and the IP [6] was 8.9 mg/dL. The K [6] was 4.2 meq/L, the LDH [6] was 152.2 IU/L and the Na [6] was 139.6 meq/L. For the same sequence, the PL [6] was 132.4 mg/dL, the RALB [6] was 2.8 g/dL and the TBIL [6] was 0.014 mg/dL. The TC [6] was 75 mg/dL, the TG [6] was 80.6 mg/dL and the TP [6] was 5.2 g/dL. For the same sequence, the gamma-GTP [6] was 1.4 IU/L, the TERMINAL_BW [7] was 216 g and the APTT [8] was 22.5 s. It also gave a Bas [8] of 0%, an Eos [8] of 1% and a Fbg [8] of 275 mg/dL. The Hb [8] was 13 g/dL, the Ht [8] was 39.9% and the Lym [8] was 77%. For the same sequence, the MCHC [8] was 32.6%, the MCV [8] was 63.4 fL and the Mono [8] was 3%. For the same sequence, the Neu [8] was 17.8%, the PT [8] was 15.4 s and the Plat [8] was 128.4 x10_4/uL. For the same sequence, the RBC [8] was 629.4 x10_4/ul, the Ret [8] was 6.1% and the WBC [8] was 106.4 x10_2/uL. The KIDNEY_L [7] was 1 g, the KIDNEY_R [7] was 1 g and the KIDNEY_TOTAL [7] was 2 g. It also gave an LIVER [7] of 9.4 g, an ALP [9] of 1530.2 IU/L and an ALT [9] of 42.8 IU/L. For the same sequence, the AST [9] was 75.8 IU/L, the CRE [9] was 0.1 mg/dL and the DBIL [9] was 0 mg/dL. The IP [9] was 9.6 mg/dL, the K [9] was 4.4 meq/L and the LDH [9] was 159.6 IU/L. It also gave a Na [9] of 138.6 meq/L, a PL [9] of 135.6 mg/dL and an RALB [9] of 2.9 g/dL. The TBIL [9] was 0 mg/dL, the TC [9] was 73.2 mg/dL and the TG [9] was 92.2 mg/dL. For the same sequence, the TP [9] was 5.4 g/dL and the gamma-GTP [9] was 2 IU/L.

— ChEMBL document CHEMBL3885861, “Open TG-GATES”
